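All cell lines were grown in 96-well plates and treated with compound for 48 hours. Here, GI50 denotes the concentration required for 50% inhibition of growth.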 Activity calls are given as the source filed them. No stated cut-off is given here; in the data, active = GI50 up to about 1.1 µM and inactive = higher.
What was measured:
Test in all cases: inhibition of tumour cell growth, NCI panel, 48 h
[1] = system: K562
[2] = system: RPMI-8226
[3] = system: HOP-92
[4] = system: NCI/ADR-RES
[5] = system: OVCAR-5
[6] = system: NCI-H226
[7] = system: T47D
[8] = system: MDA-N
[9] = system: SK-MEL-2
[10] = system: HCC 2998
[11] = system: IGROV-1
[12] = system: HOP-62
[13] = system: MCF7
[14] = system: SK-MEL-5
[15] = system: HCT-15
[16] = system: OVCAR-8
[17] = system: NCI-H522
[18] = system: U-251
[19] = system: HL-60
[20] = system: SW-620
[21] = system: EKVX
[22] = system: SNB-19
[23] = system: HT-29
[24] = system: MOLT-4
[25] = system: MDA-MB-435
[26] = system: A549
[27] = system: UACC-257
[28] = system: NCI-H460
[29] = system: NCI-H23
[30] = system: ACHN
[31] = system: Malme-3M
[32] = system: KM12
[33] = system: OVCAR-4
[34] = system: 786-0
[35] = system: COLO 205
[36] = system: OVCAR-3
[37] = system: LOX IMVI
[38] = system: SF-539
[39] = system: PC-3
[40] = system: SK-OV-3
[41] = system: SF-295
[42] = system: SN12C
[43] = system: SR
[44] = system: SK-MEL-28
[45] = system: TK-10
[46] = system: HCT-116
[47] = system: BT-549
[48] = system: MDA-MB-231
[49] = system: CCRF-CEM
[50] = system: A498
[51] = system: DU-145
[52] = system: CAKI-1
[53] = system: UO-31
[54] = system: UACC-62
[55] = system: M14
[56] = system: SNB-75
[57] = system: SF-268
[58] = system: RXF 393

COc1nc(C(Cl)(Cl)Cl)c(Cl)c(O)c1Cl was tested, and the GI50 [1] was > 100 µM (inactive), the GI50 [2] was > 100 µM (inactive) and the GI50 [3] was > 100 µM (inactive). For the same compound, the GI50 [4] was > 100 µM (inactive), the GI50 [5] was > 100 µM (inactive) and the GI50 [6] was > 100 µM (inactive). For the same compound, the GI50 [7] was > 100 µM (inactive), the GI50 [8] was > 100 µM (inactive) and the GI50 [9] was > 100 µM (inactive). For the same compound, the GI50 [10] was > 100 µM (inactive), the GI50 [11] was > 100 µM (inactive) and the GI50 [12] was > 100 µM (inactive). For the same compound, the GI50 [13] was > 100 µM (inactive), the GI50 [14] was > 100 µM (inactive) and the GI50 [15] was > 100 µM. The GI50 [16] was > 100 µM (inactive), the GI50 [17] was 49.3 µM (inactive) and the GI50 [18] was > 100 µM (inactive). For the same compound, the GI50 [19] was > 100 µM (inactive), the GI50 [20] was > 100 µM (inactive) and the GI50 [21] was > 100 µM (inactive). The GI50 [22] was > 100 µM (inactive), the GI50 [23] was > 100 µM (inactive) and the GI50 [24] was > 100 µM (inactive). The GI50 [25] was > 100 µM (inactive), the GI50 [26] was > 100 µM (inactive) and the GI50 [27] was > 100 µM (inactive). The GI50 [28] was > 100 µM (inactive), the GI50 [29] was > 100 µM (inactive) and the GI50 [30] was > 100 µM (inactive). The GI50 [31] was > 100 µM (inactive), the GI50 [32] was > 100 µM (inactive) and the GI50 [33] was > 100 µM (inactive). For the same compound, the GI50 [34] was > 100 µM (inactive), the GI50 [35] was > 100 µM (inactive) and the GI50 [36] was > 100 µM (inactive). For the same compound, the GI50 [37] was > 100 µM (inactive), the GI50 [38] was > 100 µM (inactive) and the GI50 [39] was > 100 µM (inactive). For the same compound, the GI50 [40] was > 100 µM (inactive), the GI50 [41] was > 100 µM (inactive) and the GI50 [42] was > 100 µM (inactive). For the same compound, the GI50 [43] was > 100 µM (inactive), the GI50 [44] was > 100 µM (inactive) and the GI50 [45] was > 100 µM (inactive). For the same compound, the GI50 [46] was > 100 µM (inactive), the GI50 [47] was > 100 µM (inactive) and the GI50 [48] was > 100 µM (inactive). The GI50 [49] was > 100 µM (inactive), the GI50 [50] was > 100 µM (inactive) and the GI50 [51] was > 100 µM (inactive). The GI50 [52] was 30.5 µM (inactive), the GI50 [53] was > 100 µM (inactive) and the GI50 [54] was > 100 µM (inactive).

With S=C(Nc1ccccn1)Nc1ccccc1Cl the GI50 [1] was > 100 µM (inactive), the GI50 [55] was > 100 µM (inactive) and the GI50 [2] was > 100 µM (inactive). For the same compound, the GI50 [4] was > 67.5 µM (inactive), the GI50 [5] was > 50.2 µM (inactive) and the GI50 [7] was 67.8 µM (inactive). The GI50 [8] was > 100 µM (inactive), the GI50 [9] was > 100 µM (inactive) and the GI50 [56] was > 38.5 µM (inactive). The GI50 [10] was > 100 µM (inactive), the GI50 [11] was > 36.1 µM (inactive) and the GI50 [12] was 52 µM (inactive). For the same compound, the GI50 [13] was 5.98 µM (inactive), the GI50 [14] was 42.4 µM (inactive) and the GI50 [15] was 59.8 µM. For the same compound, the GI50 [16] was 56 µM (inactive), the GI50 [17] was 14.7 µM (inactive) and the GI50 [18] was 48.6 µM (inactive). The GI50 [19] was > 80.7 µM (inactive), the GI50 [20] was > 80.5 µM (inactive) and the GI50 [57] was > 43.8 µM (inactive). For the same compound, the GI50 [21] was 8.51 µM (inactive), the GI50 [22] was 27 µM (inactive) and the GI50 [23] was > 61.1 µM (inactive). The GI50 [24] was > 100 µM (inactive), the GI50 [25] was 69.5 µM (inactive) and the GI50 [26] was 50.8 µM (inactive). The GI50 [27] was > 72.9 µM (inactive), the GI50 [28] was 71 µM (inactive) and the GI50 [29] was 49.9 µM (inactive). The GI50 [30] was 32.2 µM (inactive), the GI50 [31] was > 48.2 µM (inactive) and the GI50 [32] was > 44.4 µM (inactive). For the same compound, the GI50 [33] was > 61.7 µM (inactive), the GI50 [34] was > 67.5 µM (inactive) and the GI50 [35] was > 100 µM (inactive). The GI50 [36] was > 67.1 µM (inactive), the GI50 [37] was > 100 µM (inactive) and the GI50 [38] was 55.3 µM (inactive). For the same compound, the GI50 [39] was > 84.5 µM (inactive), the GI50 [40] was > 66.1 µM (inactive) and the GI50 [41] was > 64.9 µM (inactive). For the same compound, the GI50 [58] was 33.3 µM (inactive), the GI50 [42] was > 100 µM (inactive) and the GI50 [43] was 73.6 µM (inactive). The GI50 [44] was > 100 µM (inactive), the GI50 [45] was > 68.7 µM (inactive) and the GI50 [46] was > 71.9 µM (inactive). For the same compound, the GI50 [47] was 52.8 µM (inactive), the GI50 [48] was 61.9 µM (inactive) and the GI50 [49] was > 100 µM (inactive). The GI50 [50] was > 84.3 µM (inactive), the GI50 [51] was > 100 µM (inactive) and the GI50 [52] was > 52.4 µM (inactive). For the same compound, the GI50 [53] was > 100 µM (inactive) and the GI50 [54] was > 52.4 µM (inactive).

With COC1CCC(OC2CC(C3(C)CCC4(CC(O)C(C)C(C(C)/C=C(\C)C(=O)C(C)CC(C)C(=O)O)O4)O3)OC3(OC(C4OC(O)(CO)C(C)CC4C)CC3C)C2C)OC1C (stereo unspecified) the GI50 [1] was < 0.0155 µM (active), the GI50 [55] was 0.122 µM (active) and the GI50 [2] was < 0.01 µM (active). For the same compound, the GI50 [3] was 0.482 µM (active), the GI50 [5] was 2.99 µM (inactive) and the GI50 [6] was 0.378 µM (active). The GI50 [7] was < 0.01 µM (active), the GI50 [8] was 0.0811 µM (active) and the GI50 [9] was 0.161 µM (active). The GI50 [56] was 0.022 µM (active), the GI50 [10] was < 0.0247 µM (active) and the GI50 [11] was 1.79 µM (inactive). For the same compound, the GI50 [12] was < 0.0156 µM (active), the GI50 [13] was < 0.0208 µM (active) and the GI50 [14] was < 0.0201 µM (active). The GI50 [15] was 0.0351 µM, the GI50 [16] was < 0.0368 µM (active) and the GI50 [17] was < 0.01 µM (active). The GI50 [18] was < 0.0166 µM (active), the GI50 [19] was < 0.01 µM (active) and the GI50 [20] was < 0.0269 µM (active). The GI50 [21] was 0.507 µM (active), the GI50 [22] was 0.0434 µM (active) and the GI50 [23] was < 0.0313 µM (active). For the same compound, the GI50 [24] was < 0.01 µM (active), the GI50 [25] was 0.0923 µM (active) and the GI50 [26] was < 0.0154 µM (active). The GI50 [27] was < 0.0199 µM (active), the GI50 [28] was < 0.0144 µM (active) and the GI50 [29] was < 0.0345 µM (active). For the same compound, the GI50 [30] was < 0.038 µM (active), the GI50 [31] was < 0.0205 µM (active) and the GI50 [32] was 0.0753 µM (active). For the same compound, the GI50 [33] was 0.337 µM (active), the GI50 [34] was < 0.0341 µM (active) and the GI50 [35] was < 0.0154 µM (active). The GI50 [36] was < 0.01 µM (active), the GI50 [37] was < 0.0253 µM (active) and the GI50 [38] was 0.0453 µM (active). The GI50 [39] was < 0.01 µM (active), the GI50 [40] was 0.528 µM (active) and the GI50 [41] was 0.179 µM (active). The GI50 [58] was < 0.01 µM (active), the GI50 [42] was < 0.0319 µM (active) and the GI50 [43] was < 0.01 µM (active). The GI50 [44] was 0.0362 µM (active), the GI50 [45] was 0.646 µM (active) and the GI50 [46] was < 0.0279 µM (active). The GI50 [47] was < 0.0324 µM (active), the GI50 [48] was 0.0621 µM (active) and the GI50 [49] was < 0.01 µM (active). The GI50 [50] was < 0.0169 µM (active), the GI50 [51] was < 0.0501 µM (active) and the GI50 [52] was 0.0982 µM (active). The GI50 [53] was 0.0548 µM (active) and the GI50 [54] was 0.132 µM (active).
